Results taken from patent US20220110985A1, “NUTRITIONAL COMPOSITION COMPRISING 2'FUCOSYLLACTOSE AND 3'GALACTOSYLLACTOSE” (N.V. Nutricia, priority 2019, published 2022).

Columns and labels:
Caco-2 cell monolayer = test: DON-induced impairment of Caco-2 cell monolayer integrity (TEER, lucifer yellow flux); assay type: cell-based, human; settings: for effect on DON-induced loss of epithelial barrier integrity (TEER, LY flux), in words: 24 h pretreatment (GLs 0.75 wt. %; 2′-FL 1 mg/ml), then DON 4.2 μM 24 h
Protocol: Beta1,3′-galactosyl-lactose (beta3′-GL), beta1,4′-galactosyllactose (beta4′-GL) and beta1,6′-galactosyl-lactose (beta6′-GL) were obtained from Carbosynth (Berkshire, UK). Alpha1,3′-galactosyl-lactose (alpha3′-GL) was obtained from Elicityl (Crolles, France). Purified deoxydivalenol (DON) (D0156; Sigma Aldrich, St Luis, Mo., USA) was dissolved in pure ethanol and stored at −20° C. Human epithelial colorectal adenocarcinoma (Caco-2) cells were obtained from American […] (Code HTB-37) (Manasse, Va., USA, passage 90-102).
Caco-2 cells were used according to established methods. In brief: cells were cultured in Dulbecco's modified Eagle medium (DMEM) and seeded at a density of 0.3×10^5 cells into 0.3 cm^2 high pore density (0.4 μm) inserts with a polyethylene terephthalate membrane (BD Biosciences, Franklin Lakes, N.J., USA) placed in a 24-well plate. The Caco-2 cells were maintained in a humidified atmosphere of 95 air and 5% CO2 at 37° C.
Caco-2 cell monolayers were thus grown in a transwell system, which is a model for intestinal barrier function. The monolayers were pretreated for 24 h with different GLs, including beta3′-GL, alpha3′-GL, beta4′-GL and beta6′-GL in a concentration of 0.75 wt. % of the GL, before being exposed to the fungal toxin deoxynivalenol (DON), which is a trigger and model compound to impair intestinal barrier. DON was diluted to a final concentration of 4.2 μM in complete cell medium and added to the apical side as well as to the basolateral side of the transwell inserts. […] Incubation with DON was 24 h.
Measurements of the transepithelial electrical resistance (TEER) and lucifer yellow (LY) permeability were conducted to investigate barrier integrity. For TEER measurements a Millicel-ERS voltohmmeter connected to a pair of chopsticks electrodes was used to measure the TEER values. Results are expressed as a percentage of the initial value. For paracellular tracer flux assay the membrane impermeable lucifer yellow (LY) (Sigma, St Luis, Mo., USA) was added in a concentration of 16 μg/ml to the apical compartment in the transwell plate for 4 h, and the paracellular flux was determined by measuring the fluorescence intensity in the basolateral compartment with a spectrophotofluorimeter (FLUOstar Optima, BMG Labtech, Offenburg, Germany) set at excitation and emission wavelengths of 410 and 520 nm, respectively. Release of interleukin-8 (IL-8 or CXCL8), which is a typical marker for inflammation, was quantified in the medium of the apical side and the basolateral side of the Caco-2 transwell inserts in response to the treatments. CXCL8 concentrations were measured by using the human IL-8 ELISA assay (BD Biosciences, Pharmingem, San Diego, Calif., USA) according to manufacturer's instructions. For more details on materials and methods see Akbari et al, 2016, Eur J Nutr. 56(5):1919-1930.

[1] = system: human PBMC, CD3/CD28 stimulated; test: Cytokine production of CD3/CD28 stimulated PBMC; assay type: cell-based; settings: for CCL17 levels, in words / levels of IL-4 and IL-13 as compared to control, in words: CD3/CD28 stimulated PBMC, pre-incubation; for Relative level of CCL17, Mean (s.e.) / Relative level of IL-4, Mean (s.e.) / Relative level of IL-13, Mean (s.e.): CD3/CD28 stimulated, 24 h pre-incubation, 0.2 wt % 2′-FL, 0.1 wt % 3′-GL, blanc = 1, observed
Protocol: Isolation of PBMC from healthy donors: Human peripheral blood mononuclear cells (PBMC) from healthy donors were isolated from buffy coats (Sanquin, Amsterdam, the Netherlands). PBMC were obtained by centrifugation using Leucosep tubes (Greiner Bio-One). PBMC were collected and washed in PBS (Gibco, Thermo Fisher Technologies)+2% heat-inactivated FCS (Invitrogen), followed by hypotonic lysis of erythrocytes with sterile lysis buffer (0.15 M NH4Cl, 0.01 M KHCO3 and 0.1 mM EDTA, pH of 7.4 at 4° C., all from Merck, Darmstadt, Germany). After lysis, the PBMC were resuspended in freezing medium (70% RPMI 1640 medium (Gibco, Thermo Fisher Technologies) supplemented with 10% heat-inactivated FCS and 100 U/ml penicillin-streptomycin, 20% heat-inactivated FCS and 10% DMSO (Sigma)) and cryopreserved.
PBMC activation model: PBMC (0.2·10^6 cell/well) were cultured in 96-well flat bottom plates (Corning). For 24 hours the cells were pre-incubated with 2′-FL (Jennewein), 3′-GL (0-0.3% w/v; Carbosynth) or sodium butyrate (0.2 mM; Sigma Aldrich) and combinations thereof. Subsequently, the cells were CD3/CD28-activated (Pelicluster CD3 and Pelicluster CD28, Sanquin) for an additional 24 hours. After incubation, IFNγ was measured by ELISA in the supernatants (see below). To determine cell activity after stimulation, PBMC were incubated with cell proliferation reagent WST-1 (10 μl; Roche) and/or 10% Triton (5 μl; negative control). After 3 hours, absorbance was measured at OD450 nm and OD650 nm and cell activity was calculated according to manufacturer's instructions.
Cytokine production of PBMC: PBMC were incubated with indicated reagents. After incubation, the supernatants were collected and IL2, IL6, IL10, IL13, IL21, TNFα, IFNγ, MIF, CCL1, CCL13, CCL17, CCL20, CCL22 and CXCL8-11 levels were measured by conducting a validated multiplex immunoassay based on Luminex technology (xMAP, Luminex Austin Tex. USA). Acquisition was conducted with the Biorad FlexMAP3D (Biorad laboratories, Hercules USA) in combination with xPONENT software version 4.2 (Luminex). Data was analyzed by 5-parametric curve fitting using Bio-Plex Manager software, version 6.1.1 (Biorad).
After PBMC stimulation, cell culture supernatants were collected, after which cytokine responses were measured in order to test immune responsiveness of the cells. The levels of cytokines measured in stimulated conditions were corrected for the (low) levels of the cytokines measured in non-stimulated conditions. In addition, since each donor is reacting in its own efficiency onto the T cell stimulus, we calculated the individual index of cytokine response by dividing the intervention induced response by the basal stimulated response.
Subsequently, in order to test the direct effect of specific compounds on PBMC activity, the cells were activated with CD3/CD28 for 24 hours after a pre-incubated for 24 h with either 2′-FL, 3′-GL and combinations thereof. In addition, since each donor is reacting in its own efficiency onto the T cell stimulus, the individual index of cytokine response was calculated by dividing the intervention induced response by the basal stimulated response (the blanc is set at 1). In this way the intervention within 10 different donors has been studied.

[2] = Caco-2 monolayer, DON 4.2 μM, 2′-FL 1 mg/ml

Compound | effect on DON-induced loss of epithelial barrier integrity (TEER, LY flux), in words (Caco-2 cell monolayer) | CCL17 levels, in words [1] | levels of IL-4 and IL-13 as compared to control, in words [1] | Relative level of CCL17, Mean (s.e.) [1] | Relative level of IL-4, Mean (s.e.) [1] | Relative level of IL-13, Mean (s.e.) [1] | Lucifer yellow flux (Caco-2 cell monolayer; [2]) | TEER (% of initial value) Mean (s.e.) (Caco-2 cell monolayer; [2])
Gal (beta 1-3)-Gal (beta 1-4)-Glc [3′-GL] | prevented the DON-induced loss of epithelial barrier integrity | no significant effect | a decrease was detected | 0.6212 (0.0531) | 0.5825 (0.0413) | 0.5472 (0.0723) | – | –
C[C@@H]1O[C@@H](O[C@H]2[C@H](O[C@H]3[C@H](O)[C@@H](O)C(O)O[C@@H]3CO)O[C@H](CO)[C@H](O)[C@@H]2O)[C@@H](O)[C@H](O)[C@@H]1O (stereo partly drawn) [2′-FL, α-L-Fuc-(1→2)-β-D-Gal-(1→4)-D-Glc] | statistically significantly prevent the DON induced reduction in TEER and increase in LYF | no significant effect | had no effect | 1.061 (0.117) | 0.9887 (0.0517) | 1.039 (0.080) | 446.4 (8.302)^∧ ng/ml (cm^2xh) | 42.79 (0.844)^∧∧ % of initial value
